In this assay the test system is MV-4-11 cells. The assay is described as follows: Gene expression microarray analysis (Affymetrix PrimeView) and GSEA. Format: cell-based, human. The arrangement: RFU PODN (11730768_x_at) / Fold change /veh PODN (11730768_x_at) / RFU LINC00158 (11744669_a_at) / Fold change /veh LINC00158 (11744669_a_at) / RFU DUSP10 (11751237_a_at) / Fold change /veh DUSP10 (11751237_a_at) / RFU ID3 (11757404_x_at) / Fold change /veh ID3 (11757404_x_at) / RFU PLEKHG5 (11737974_s_at) / Fold change /veh PLEKHG5 (11737974_s_at) / RFU LRRC4B (11730491_at) / Fold change /veh LRRC4B (11730491_at) / RFU GIMAP4 (11747438_a_at) / Fold change /veh GIMAP4 (11747438_a_at) / RFU KRT8 (11758183_x_at) / Fold change /veh KRT8 (11758183_x_at) / RFU CNN1 (11734310_a_at) / Fold change /veh CNN1 (11734310_a_at) / RFU VPS37D (11726825_at) / Fold change /veh VPS37D (11726825_at) / RFU C10orf10 (11716522_x_at) / Fold change /veh C10orf10 (11716522_x_at) / RFU KIR2DL2 /// KIR2DL4 /// KIR2DL5A /// KIR2DL5B /// KIR2DS1 /// KIR2DS2 /// KIR2DS3 /// KIR2DS4 /// KIR3DL3 /// KIR3DL3 /// KIR3DS1 (11738374_at) / Fold change /veh KIR2DL2 /// KIR2DL4 /// KIR2DL5A /// KIR2DL5B /// KIR2DS1 /// KIR2DS2 /// KIR2DS3 /// KIR2DS4 /// KIR3DL3 /// KIR3DL3 /// KIR3DS1 (11738374_at) / RFU C1QL1 (11718748_at) / Fold change /veh C1QL1 (11718748_at) / RFU TMPRSS4 (11747572_a_at) / Fold change /veh TMPRSS4 (11747572_a_at) / RFU HAMP (11756126_x_at) / Fold change /veh HAMP (11756126_x_at) / RFU RNFT2 (11725882_a_at) / Fold change /veh RNFT2 (11725882_a_at) / RFU NR4A2 (11747474_a_at) / Fold change /veh NR4A2 (11747474_a_at) / RFU ABCC12 (11746883_a_at) / Fold change /veh ABCC12 (11746883_a_at) / RFU TMEM136 (11760407_x_at) / Fold change /veh TMEM136 (11760407_x_at) / RFU CLDN22 /// WWC2 (11732394_at) / Fold change /veh CLDN22 /// WWC2 (11732394_at) / RFU HLA-DPB1 (11760878_x_at) / Fold change /veh HLA-DPB1 (11760878_x_at) / RFU SPINT1 (11716480_a_at) / Fold change /veh SPINT1 (11716480_a_at) / RFU GAP43 (11754022_s_at) / Fold change /veh GAP43 (11754022_s_at) / RFU A4GNT (11735810_at) / Fold change /veh A4GNT (11735810_at) / RFU PRB3 (11715151_x_at) / Fold change /veh PRB3 (11715151_x_at) / RFU TUBB4B (11761932_at) / Fold change /veh TUBB4B (11761932_at) / RFU CAPN14 (11732068_a_at) / Fold change /veh CAPN14 (11732068_a_at) / RFU TMCC2 (11721928_a_at) / Fold change /veh TMCC2 (11721928_a_at) / RFU IRGQ (11745062_a_at) / Fold change /veh IRGQ (11745062_a_at) / RFU FAM174B (11720279_a_at) / Fold change /veh FAM174B (11720279_a_at) / RFU TMPRSS4 (11748680_a_at) / Fold change /veh TMPRSS4 (11748680_a_at) / RFU FAM212B (11763350_a_at) / Fold change /veh FAM212B (11763350_a_at) / RFU PLEKHG5 (11743358_a_at) / Fold change /veh PLEKHG5 (11743358_a_at) / RFU ZSCAN30 (11745921_a_at) / Fold change /veh ZSCAN30 (11745921_a_at) / RFU CMKLR1 (11741424_a_at) / Fold change /veh CMKLR1 (11741424_a_at) / RFU LOC101060620 /// MAPK8IP1 (11723275_at) / Fold change /veh LOC101060620 /// MAPK8IP1 (11723275_at) / RFU SPTSSB (11747773_x_at) / Fold change /veh SPTSSB (11747773_x_at) / RFU PRSS12 (11739890_at) / Fold change /veh PRSS12 (11739890_at) / RFU BIN1 (11741810_x_at) / Fold change /veh BIN1 (11741810_x_at) / RFU WNT11 (11732464_a_at) / Fold change /veh WNT11 (11732464_a_at) / RFU C10orf10 (11716521_a_at) / Fold change /veh C10orf10 (11716521_a_at) / RFU C5orf56 (11738089_at) / Fold change /veh C5orf56 (11738089_at) / RFU CYB561 (11721691_x_at) / Fold change /veh CYB561 (11721691_x_at) / RFU ANKRD19P (11752326_a_at) / Fold change /veh ANKRD19P (11752326_a_at) / RFU OR2T12 /// OR2T33 /// OR2T8 (11738714_s_at) / Fold change /veh OR2T12 /// OR2T33 /// OR2T8 (11738714_s_at) / RFU VCAN (11748164_a_at) / Fold change /veh VCAN (11748164_a_at) / RFU JSRP1 (11732532_at) / Fold change /veh JSRP1 (11732532_at) / RFU KRTAP10-11 (11738290_x_at) / Fold change /veh KRTAP10-11 (11738290_x_at) / RFU MYO3A (11730013_a_at) / Fold change /veh MYO3A (11730013_a_at) / RFU EBF3 (11725865_a_at) / Fold change /veh EBF3 (11725865_a_at) / RFU CAMK2N1 (11719241_x_at) / Fold change /veh CAMK2N1 (11719241_x_at) / RFU C5orf56 (11738088_a_at) / Fold change /veh C5orf56 (11738088_a_at) / RFU OLFML3 (11715873_a_at) / Fold change /veh OLFML3 (11715873_a_at) / RFU LOC100653217 /// NTM (11731650_a_at) / Fold change /veh LOC100653217 /// NTM (11731650_a_at) / RFU MAPK11 (11762145_a_at) / Fold change /veh MAPK11 (11762145_a_at) / RFU FIZ1 (11724087_x_at) / Fold change /veh FIZ1 (11724087_x_at) / RFU OASL (11726364_x_at) / Fold change /veh OASL (11726364_x_at) / RFU SOX15 (11748057_x_at) / Fold change /veh SOX15 (11748057_x_at) / RFU CD79A (11719716_a_at) / Fold change /veh CD79A (11719716_a_at) / RFU HIST1H1D (11736915_at) / Fold change /veh HIST1H1D (11736915_at) / RFU CASKIN2 (11723855_a_at) / Fold change /veh CASKIN2 (11723855_a_at) / RFU LOC730098 (11760151_x_at) / Fold change /veh LOC730098 (11760151_x_at) / RFU OR4N2 (11742367_at) / Fold change /veh OR4N2 (11742367_at) / RFU PRRT2 (11749266_a_at) / Fold change /veh PRRT2 (11749266_a_at) / RFU SNX32 (11753110_a_at) / Fold change /veh SNX32 (11753110_a_at) / RFU CDHR5 (11726645_a_at) / Fold change /veh CDHR5 (11726645_a_at) / RFU RCAN1 (11760418_a_at) / Fold change /veh RCAN1 (11760418_a_at) / RFU FAM167A (11723789_a_at) / Fold change /veh FAM167A (11723789_a_at) / RFU FAM26E (11764081_at) / Fold change /veh FAM26E (11764081_at) / RFU ISYNA1 (11749810_s_at) / Fold change /veh ISYNA1 (11749810_s_at) / RFU ACY1 (11761880_at) / Fold change /veh ACY1 (11761880_at) / RFU 11764098_at / Fold change /veh 11764098_at / RFU SAMD14 (11745864_x_at) / Fold change /veh SAMD14 (11745864_x_at) / RFU NPB (11741838_a_at) / Fold change /veh NPB (11741838_a_at) / RFU TMPRSS6 (11731388_a_at) / Fold change /veh TMPRSS6 (11731388_a_at) / RFU KRTAP10-2 (11738614_at) / Fold change /veh KRTAP10-2 (11738614_at) / RFU ARHGAP8 /// PRR5-ARHGAP8 (11727945_x_at) / Fold change /veh ARHGAP8 /// PRR5-ARHGAP8 (11727945_x_at) / RFU KRTAP5-7 /// NADSYN1 (11734609_at) / Fold change /veh KRTAP5-7 /// NADSYN1 (11734609_at) / RFU RASL12 (11751679_a_at) / Fold change /veh RASL12 (11751679_a_at) / RFU CDKN2B (11736163_a_at) / Fold change /veh CDKN2B (11736163_a_at) / RFU PRF1 (11729649_at) / Fold change /veh PRF1 (11729649_at) / RFU, ZNF638 /// ZNF638-IT1 / Fold change vs veh, ZNF638 /// ZNF638-IT1 / RFU, PANK3 / Fold change vs veh, PANK3 / RFU, SH3YL1 / Fold change vs veh, SH3YL1 / RFU, ZEB2 / Fold change vs veh, ZEB2 / RFU, NRIP1 / Fold change vs veh, NRIP1 / RFU, PTTG1IP / Fold change vs veh, PTTG1IP / RFU, CAPN2 / Fold change vs veh, CAPN2 / RFU, MED14 / Fold change vs veh, MED14 / RFU, SNORA58 / Fold change vs veh, SNORA58 / RFU, C1orf63 / Fold change vs veh, C1orf63 / RFU, LRRFIP1 / Fold change vs veh, LRRFIP1 / RFU, NDUFAF7 / Fold change vs veh, NDUFAF7 / RFU, SLC12A2 / Fold change vs veh, SLC12A2 / RFU, IBTK / Fold change vs veh, IBTK / RFU, ESF1 / Fold change vs veh, ESF1 / Fold change vs veh, TMEM50B / RFU, TAOK1 / Fold change vs veh, TAOK1 / RFU, ACBD3 / Fold change vs veh, ACBD3 / RFU, TMA16 / Fold change vs veh, TMA16 / RFU, RWDD3 / Fold change vs veh, RWDD3 / RFU, BCAT1 / Fold change vs veh, BCAT1 / RFU, EDEM3 / Fold change vs veh, EDEM3 / RFU, TMEM33 / Fold change vs veh, TMEM33 / RFU, WDR75 / Fold change vs veh, WDR75 / RFU, AHCTF1 / Fold change vs veh, AHCTF1 / RFU, TFRC / Fold change vs veh, TFRC / RFU, ZDHHC17 / Fold change vs veh, ZDHHC17 / RFU, NOM1 / Fold change vs veh, NOM1 / RFU, ARL8B / Fold change vs veh, ARL8B / RFU, ZBTB11 / Fold change vs veh, ZBTB11 / RFU, TAMM41 / Fold change vs veh, TAMM41 / RFU, KIAA1704 /// LOC100996395 / Fold change vs veh, KIAA1704 /// LOC100996395 / RFU, ING1 / Fold change vs veh, ING1 / RFU, TRMT61B / Fold change vs veh, TRMT61B / RFU, FUBP3 / Fold change vs veh, FUBP3 / RFU, TP53 / Fold change vs veh, TP53 / RFU, TNKS2 / Fold change vs veh, TNKS2 / RFU, ZFP14 / Fold change vs veh, ZFP14 / RFU, ACTR2 / Fold change vs veh, ACTR2 / RFU, PPP3R1 / Fold change vs veh, PPP3R1 / RFU, PIK3R1 / Fold change vs veh, PIK3R1 / RFU, HNRNPA1 / Fold change vs veh, HNRNPA1 / RFU, RNF170 / Fold change vs veh, RNF170 / RFU, ZNF28 / Fold change vs veh, ZNF28 / RFU, RNGTT / Fold change vs veh, RNGTT / RFU, OGT / Fold change vs veh, OGT / RFU, BRD1 / Fold change vs veh, BRD1 / RFU, MARS / Fold change vs veh, MARS / RFU, ZNF655 / Fold change vs veh, ZNF655 / RFU, FAHD1 / Fold change vs veh, FAHD1 / RFU, BDP1 / Fold change vs veh, BDP1 / RFU, LRRCC1 / Fold change vs veh, LRRCC1 / RFU, ARID1A / Fold change vs veh, ARID1A / RFU, ZNF146 / Fold change vs veh, ZNF146 / RFU, ZNF330 / Fold change vs veh, ZNF330 / RFU, GPN3 / Fold change vs veh, GPN3 / RFU, C9orf123 / Fold change vs veh, C9orf123 / RFU, N4BP2L2 / Fold change vs veh, N4BP2L2 / RFU, ARFIP1 / Fold change vs veh, ARFIP1 / RFU, FAM179B / Fold change vs veh, FAM179B / RFU, BCL10 / Fold change vs veh, BCL10 / RFU, UHRF1BP1L / Fold change vs veh, UHRF1BP1L / RFU, BET1 / Fold change vs veh, BET1 / RFU, CNOT2 / Fold change vs veh, CNOT2 / RFU, ZNF268 / Fold change vs veh, ZNF268 / Fold change vs veh, ZNF507 / RFU, DGCR2 / Fold change vs veh, DGCR2 / RFU, WDSUB1 / Fold change vs veh, WDSUB1 / Fold change vs veh, HSP90B1 /// MIR3652 / RFU, ADSS / Fold change vs veh, ADSS / RFU, GK / Fold change vs veh, GK / RFU, ZNF148 / Fold change vs veh, ZNF148 / RFU, TAF9 / Fold change vs veh, TAF9 / RFU, SLC1A5 / Fold change vs veh, SLC1A5 / RFU, SLMO2 / Fold change vs veh, SLMO2 / RFU, ABCC4 / Fold change vs veh, ABCC4 / RFU, LOC101060439 /// RAP1B / Fold change vs veh, LOC101060439 /// RAP1B / RFU, RFX7 / Fold change vs veh, RFX7 / RFU, GTPBP10 / Fold change vs veh, GTPBP10 / RFU, CNEP1R1 / Fold change vs veh, CNEP1R1 / RFU, BIVM-ERCC5 /// ERCC5 / Fold change vs veh, BIVM-ERCC5 /// ERCC5 / RFU, ILF3 / Fold change vs veh, ILF3 / RFU 11762660_at / Fold change /veh 11762660_at / RFU VCAN (11757783_s_at) / Fold change /veh VCAN (11757783_s_at) / RFU DDX43 (11728927_at) / Fold change /veh DDX43 (11728927_at) / RFU KRT8 (11758188_x_at) / Fold change /veh KRT8 (11758188_x_at) / RFU NKD1 (11759106_at) / Fold change /veh NKD1 (11759106_at) / RFU SRD5A1 (11742802_a_at) / Fold change /veh SRD5A1 (11742802_a_at) / RFU TPSAB1 /// TPSB2 (11721975_s_at) / Fold change /veh TPSAB1 /// TPSB2 (11721975_s_at) / RFU GSTM3 (11746129_a_at) / Fold change /veh GSTM3 (11746129_a_at) / RFU IL23R (11737362_x_at) / Fold change /veh IL23R (11737362_x_at) / RFU TMEM51 (11727254_a_at) / Fold change /veh TMEM51 (11727254_a_at) / RFU PIWIL2 (11732686_x_at) / Fold change /veh PIWIL2 (11732686_x_at) / RFU ORM1 (11744905_x_at) / Fold change /veh ORM1 (11744905_x_at) / RFU CCDC152 (11743942_at) / Fold change /veh CCDC152 (11743942_at) / RFU ECM1 (11717891_a_at) / Fold change /veh ECM1 (11717891_a_at) / RFU IL23R (11748794_a_at) / Fold change /veh IL23R (11748794_a_at) / RFU TNFAIP8L3 (11732012_x_at) / Fold change /veh TNFAIP8L3 (11732012_x_at) / RFU MBOAT4 (11741988_at) / Fold change /veh MBOAT4 (11741988_at) / RFU 11764193_at / Fold change /veh 11764193_at / RFU TMEM53 (11763286_at) / Fold change /veh TMEM53 (11763286_at) / RFU MAGEB2 (11727129_at) / Fold change /veh MAGEB2 (11727129_at) / RFU TMEM200A (11744735_a_at) / Fold change /veh TMEM200A (11744735_a_at) / RFU CCDC152 (11751479_a_at) / Fold change /veh CCDC152 (11751479_a_at) / RFU FAM211A (11726209_a_at) / Fold change /veh FAM211A (11726209_a_at) / RFU RGS16 (11746705_a_at) / Fold change /veh RGS16 (11746705_a_at) / RFU VCAN (11755009_s_at) / Fold change /veh VCAN (11755009_s_at) / RFU RHOB (11743442_s_at) / Fold change /veh RHOB (11743442_s_at) / RFU RGS16 (11720943_a_at) / Fold change /veh RGS16 (11720943_a_at) / RFU RGS16 (11720944_at) / Fold change /veh RGS16 (11720944_at) / RFU, VPS4B / Fold change vs veh, VPS4B / RFU, CREB1 / Fold change vs veh, CREB1 / RFU, DNAJC13 / Fold change vs veh, DNAJC13 / RFU, GNAQ / Fold change vs veh, GNAQ / RFU, CDK5R1 / Fold change vs veh, CDK5R1 / RFU, ZRANB3 / Fold change vs veh, ZRANB3 / RFU, CUL4A / Fold change vs veh, CUL4A / RFU, CCNY / Fold change vs veh, CCNY / RFU, UFL1 / Fold change vs veh, UFL1 / RFU, COG3 / Fold change vs veh, COG3 / RFU, DIAPH2 / Fold change vs veh, DIAPH2 / RFU, SKA2 / Fold change vs veh, SKA2 / RFU, AFF3 / Fold change vs veh, AFF3 / RFU, LMF1 / Fold change vs veh, LMF1 / RFU, IPO11 / Fold change vs veh, IPO11 / RFU, DFFB / Fold change vs veh, DFFB / RFU, FOXP1 / Fold change vs veh, FOXP1 / RFU, CARD8 / Fold change vs veh, CARD8 / RFU, STRN3 / Fold change vs veh, STRN3 / RFU, ADK / Fold change vs veh, ADK / RFU, RASSF2 / Fold change vs veh, RASSF2 / RFU, WIPF1 / Fold change vs veh, WIPF1 / RFU, LARP1B / Fold change vs veh, LARP1B / RFU, RASA1 / Fold change vs veh, RASA1 / RFU, RB1 / Fold change vs veh, RB1 / RFU, PPFIA1 / Fold change vs veh, PPFIA1 / RFU, MAT2A / Fold change vs veh, MAT2A / RFU, CCT5 / Fold change vs veh, CCT5 / RFU, WDR92 / Fold change vs veh, WDR92 / RFU, CUX1 / Fold change vs veh, CUX1 / RFU, TTC7A / Fold change vs veh, TTC7A / RFU, TMEM135 / Fold change vs veh, TMEM135 / RFU, DEPTOR / Fold change vs veh, DEPTOR / RFU, CPM / Fold change vs veh, CPM / RFU, DNAJB6 / Fold change vs veh, DNAJB6 / RFU, CACNA2D3 / Fold change vs veh, CACNA2D3 / RFU, DTX4 / Fold change vs veh, DTX4 / RFU, TFCP2 / Fold change vs veh, TFCP2 / RFU, GMCL1 /// GMCL1P1 / Fold change vs veh, GMCL1 /// GMCL1P1 / RFU, AEBP2 / Fold change vs veh, AEBP2 / RFU, SNHG1 /// SNORD22 /// SNORD25 /// SNORD26 /// SNORD27 /// SNORD28 /// SNORD29 /// SNORD31 / Fold change vs veh, SNHG1 /// SNORD22 /// SNORD25 /// SNORD26 /// SNORD27 /// SNORD28 /// SNORD29 /// SNORD31 / Fold change (Aza/veh), C12orf56 (ProbeSet 11735607_a_at) / Fold change (ACY-1035/veh), C12orf56 (ProbeSet 11735607_a_at) / Fold change (Aza/veh), FGFR1OP (ProbeSet 11751329_s_at) / Fold change (ACY-1035/veh), FGFR1OP (ProbeSet 11751329_s_at) / Fold change (Aza/veh), VPS36 (ProbeSet 11739960_a_at) / Fold change (ACY-1035/veh), VPS36 (ProbeSet 11739960_a_at) / RFU SYPL1 (11715823_x_at) / Fold change /veh SYPL1 (11715823_x_at) / RFU IGFBP7 (11715501_s_at) / Fold change /veh IGFBP7 (11715501_s_at) / RFU REEP3 (11722064_at) / Fold change /veh REEP3 (11722064_at) / RFU IGLL1 (11728026_x_at) / Fold change /veh IGLL1 (11728026_x_at): dose or concentration left out as unconfirmed. The settings on record: ProbeSet 11725885_a_at; LIST B.

Regarding `Nc1ccc(-c2cccs2)cc1NC(=O)c1ccc2c(c1)cc(C1CC1)n2CCN1CCOCC1` [ACY-1035], the “RFU, CNEP1R1” value is on record as 81.80 RFU.

The values are drawn from paper PMC5218480 (PLoS ONE, 2017).
